# Assay results reported in patent publication US5432165A, “Methods for the treatment of infection caused by Hepatitis B virus (HBV)” (priority 1992, dated 1995).
# Tests used:
# [1] = Adverse Experience Summary (Table II), HIV-infected patients; type: in vivo, human
# Excerpt: A summary of the adverse effects experienced by some of the patients involved in the various dosage studies conducted are presented in Table II, attached hereto. Where no entry is given, no adverse experience was observed.
# [2] = month long TID dosing of FIAC; cited from earlier work
structure (smiles),measurement,setting,value
"O=c1[nH]c(=O)n([C@@H]2O[C@H](CO)[C@@H](O)[C@@H]2F)cc1I [FIAU, 1-(2'-deoxy-2'-fluoro-β-D-arabinofuranosyl)-5-iodouracil]","Incidence: ALT elevation, severe (>5x)",[1]; 0.1 mg/kg-day,1/4
same,"Incidence: AST elevation, moderate (2.5-5.0x)",[1]; 0.1 mg/kg-day,2/4
same,"Incidence: AST elevation, severe (>5x)",[1]; 0.1 mg/kg-day,1/4
same,"Incidence: Fatigue, moderate",[1]; 0.1 mg/kg-day,1/4
same,"Incidence: Hyperbilirubemia, mild",[1]; 0.1 mg/kg-day,2/4
same,"Incidence: Hypercalcemia, mild",[1]; 0.1 mg/kg-day,1/4
same,"Incidence: Hypocalcemia, mild",[1]; 0.1 mg/kg-day,1/4
same,"Incidence: Hypoglycemia, mild",[1]; 0.1 mg/kg-day,1/4
same,"Incidence: Hyponatremia, mild",[1]; 0.1 mg/kg-day,1/4
same,"Incidence: ALT elevation, mild (1.25-2.5x)",[1]; 0.5 mg/kg-day,3/10
same,"Incidence: ALT elevation, severe (>5x)",[1]; 0.5 mg/kg-day,2/10
same,"Incidence: AST elevation, mild (1.25-2.5x)",[1]; 0.5 mg/kg-day,3/10
same,"Incidence: AST elevation, moderate (2.5-5.0x)",[1]; 0.5 mg/kg-day,1/10
same,"Incidence: AST elevation, severe (>5x)",[1]; 0.5 mg/kg-day,2/10
same,"Incidence: Diarrhea, mild",[1]; 0.5 mg/kg-day,1/10
same,"Incidence: Disoriented, mild",[1]; 0.5 mg/kg-day,1/10
same,"Incidence: Fatigue, mild",[1]; 0.5 mg/kg-day,3/10
same,"Incidence: Fatigue, moderate",[1]; 0.5 mg/kg-day,1/10
same,"Incidence: Headache, mild",[1]; 0.5 mg/kg-day,2/10
same,"Incidence: Headache, moderate",[1]; 0.5 mg/kg-day,1/10
same,"Incidence: Hemauria, moderate",[1]; 0.5 mg/kg-day,1/10
same,"Incidence: Hypophosphatemia, moderate",[1]; 0.5 mg/kg-day,1/10
same,"Incidence: Nausea, mild",[1]; 0.5 mg/kg-day,3/10
same,"Incidence: Nausea, moderate",[1]; 0.5 mg/kg-day,1/10
same,"Incidence: Proteinuria, mild",[1]; 0.5 mg/kg-day,1/10
same,"Incidence: Stomatitis, moderate",[1]; 0.5 mg/kg-day,1/10
same,"Incidence: Vomiting, mild",[1]; 0.5 mg/kg-day,2/10
same,"Incidence: Weakness, mild",[1]; 0.5 mg/kg-day,2/10
same,"Incidence: ALT elevation, mild (1.25-2.5x)",[1]; 1.0 mg/kg-day,4/9
same,"Incidence: ALT elevation, moderate (2.5-5.0x)",[1]; 1.0 mg/kg-day,1/9
same,"Incidence: ALT elevation, severe (>5x)",[1]; 1.0 mg/kg-day,3/9
same,"Incidence: AST elevation, mild (1.25-2.5x)",[1]; 1.0 mg/kg-day,4/9
same,"Incidence: AST elevation, moderate (2.5-5.0x)",[1]; 1.0 mg/kg-day,1/9
same,"Incidence: AST elevation, severe (>5x)",[1]; 1.0 mg/kg-day,3/9
same,"Incidence: Abdominal Cramping, moderate",[1]; 1.0 mg/kg-day,1/9
same,"Incidence: Constipation, mild",[1]; 1.0 mg/kg-day,1/9
same,"Incidence: Decreases sensations, mild",[1]; 1.0 mg/kg-day,1/9
same,"Incidence: Diarrhea, mild",[1]; 1.0 mg/kg-day,2/9
same,"Incidence: Difficulty focusing, mild",[1]; 1.0 mg/kg-day,1/9
same,"Incidence: Dizziness, mild",[1]; 1.0 mg/kg-day,1/9
same,"Incidence: Fatigue, mild",[1]; 1.0 mg/kg-day,2/9
same,"Incidence: Fatigue, moderate",[1]; 1.0 mg/kg-day,1/9
same,"Incidence: Fatigue, severe",[1]; 1.0 mg/kg-day,1/9
same,"Incidence: Headache, mild",[1]; 1.0 mg/kg-day,1/9
same,"Incidence: Headache, severe",[1]; 1.0 mg/kg-day,1/9
same,"Incidence: Heartbum, mild",[1]; 1.0 mg/kg-day,1/9
same,"Incidence: Light Stools, mild",[1]; 1.0 mg/kg-day,1/9
same,"Incidence: Nausea, mild",[1]; 1.0 mg/kg-day,6/9
same,"Incidence: Nausea, moderate",[1]; 1.0 mg/kg-day,1/9
same,"Incidence: Paresibesia (extremities), mild",[1]; 1.0 mg/kg-day,1/9
same,"Incidence: Vomiting, mild",[1]; 1.0 mg/kg-day,1/9
same,"Incidence: Weakness, mild",[1]; 1.0 mg/kg-day,2/9
same,"Incidence: Weakness, moderate",[1]; 1.0 mg/kg-day,1/9
same,"Incidence: myositis, severe",[1]; 1.0 mg/kg-day,1/9
same,accumulation in the plasma,[2],"neither FIAC, FIAU, or their metabolites accumulated in the plasma"
